According to paper PMC11401910, “Dual client binding sites in the ATP-independent chaperone SurA” (Nature Communications, 2024):
Entries after “also recorded” stand apart in the source; their conditions may differ. Like-named read-outs stand apart in the source and are kept apart here.

Legend:
SurA-WT [1] = molecular target: T1, SurA-WT (Escherichia coli, UniProt P0ABZ6); assay type: binding; design: made in house; host or cells: E. coli BL21(DE3)
Protocol: All NMR experiments were performed on a 950-MHz Bruker Ascend Avance III HD NMR spectrometer equipped with either a Bruker 3 mm TCI or 5 mm TXO triple-resonance cryogenically cooled probe. Peptide binding experiments were performed in 5 mM EDTA, 20 mM Tris-HCl, pH 8.0 with 5 % (v/v) D2O at 25 °C. Binding experiments using full-length OMP sequences also contained 0.8 M urea. Data was acquired for ~16 h with the exception of OMP-containing experiments which were acquired for ~5 h. […] (2D ^1H-^13C SOFAST-HMQC)[70]. […] Errors in the intensity ratios for each peak between two spectra were obtained by propagating the errors according to:1 δR=R*δX/X+δY/Y where δR is the error in the intensity ratio, |R| is the value of the intensity ratio, X and Y are the intensity values for the peak in the first and second spectrum, respectively, and δX and δY are the noise floor values for the first and second spectrum, respectively.
Z-scores for intensity ratio and CSP data were calculated using:3 Zi=xi−μ/σ where xi is the value for a particular peak, and µ and σ are the mean and standard deviation for all peaks, respectively.
For assignment of SurA-WT Ile and Met residues (43 in total) each residue was individually mutated (Supplementary Table 3), and the effect of the mutation assessed by methyl-TROSY NMR. Samples contained 5–70 µM SurA variant. Assignment experiments (2D ^1H-^13C SOFAST-HMQCs) for Ile or Met variants were performed in 20 mM sodium phosphate, 50 mM NaCl, pH 7.5 (at 35 °C), or 20 mM Tris-HCl, pH 8 (at 25 °C), respectively. […] The ^1H chemical shift assignments were referenced using 2,2-dimethyl-2-silapentane-5-sulphonic acid (DSS) at 25 °C as a standard. The ^13C chemical shifts were referenced indirectly to DSS. NMR assignments have been deposited in the Biological Magnetic Resonance Bank (BMRB) with Entry ID 52180.

SurA = details: read-out: Kd, binding of peptide to SurA; cited from earlier work
Text: (where Ar is an aromatic residue and X is any amino acid), or aromatic-enriched sequences containing an Ar-X-Ar-X-Pro motif. […] Both of these types of peak changes (shifts and/or broadening), can report on binding or conformational changes caused by binding at the location of the corresponding ^13CH3 probe[73],[74].

SurA-WT [2] = molecular target: T1, SurA-WT; details: pH 8
Text: (1 picture or pasted object on this page, not shown here)
Source data are provided as a Source Data file.

[3] = 5 µM SurA-WT, 200 µM peptide (SVD and WEYIPNV 50 µM), 5 mM EDTA, 20 mM Tris-HCl pH 8, 25 °C

T1 sequence (P0ABZ6 other isoform, or with tags, fused parts or gaps): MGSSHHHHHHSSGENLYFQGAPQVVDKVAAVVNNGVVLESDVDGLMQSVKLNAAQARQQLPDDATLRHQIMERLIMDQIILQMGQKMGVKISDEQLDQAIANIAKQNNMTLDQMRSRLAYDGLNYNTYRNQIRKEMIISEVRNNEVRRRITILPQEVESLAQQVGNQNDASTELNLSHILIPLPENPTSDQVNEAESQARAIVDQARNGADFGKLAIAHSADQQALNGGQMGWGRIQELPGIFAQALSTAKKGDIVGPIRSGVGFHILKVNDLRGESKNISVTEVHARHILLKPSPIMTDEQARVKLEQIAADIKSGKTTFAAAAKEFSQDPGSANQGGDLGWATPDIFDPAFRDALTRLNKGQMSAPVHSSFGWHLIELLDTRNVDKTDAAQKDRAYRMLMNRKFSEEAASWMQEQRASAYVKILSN

| Molecule | Interaction of peptide with SurA-WT binding sites (core, P1) by methyl-TROSY NMR, in words (SurA-WT [1]; [3]) | Interaction of peptide with SurA-WT binding sites (core, P1) by methyl-TROSY NMR, in words (SurA-WT [1]; pH 8) | Kd (SurA) [µM] | Affinity of peptide for SurA-WT by ITC (in words) (SurA-WT [2]) |
| --- | --- | --- | --- | --- |
| CSCC[C@H](NC(=O)[C@H](CCCCN)NC(=O)[C@H](CC(N)=O)NC(=O)[C@H](CCSC)NC(=O)[C@H](CCC(N)=O)NC(C)=O)C(=O)NCC(=O)NCC(=O)N[C@@H](Cc1ccccc1)C(=O)N[C@@H](CC(N)=O)C(=O)N[C@@H](CC(C)C)C(=O)N[C@@H](CCCCN)C(=O)N[C@@H](Cc1ccc(O)cc1)C(=O)N[C@@H](CCCNC(=N)N)C(=O)N[C@@H](Cc1ccc(O)cc1)C(=O)N[C@@H](CCC(=O)O)C(N)=O [QMN] | also affect the peak for M231 in the P1 domain; also recorded: binding results in conformational changes associated with core-P1 opening |  |  |  |
| Ac-KHDTSDYGFSYGAGL-NH2 [KHD] | also affect the peak for M231 in the P1 domain |  |  |  |
| NLKYRYE [QMN^C-term, C-terminal seven residues of QMN] |  | demonstrated binding at the core site, but with binding largely abolished at the P1 site |  |  |
| WEYIPNV [reference compound] |  | severe broadening of the resonance for M231; also recorded: substantial CSPs in the P1 domain | 1 to 14 | consistent with literature values |
